Experimental data published in patent publication US20220081421A1, “ANTIBACTERIAL COMPOUNDS” (Forge Therapeutics, Inc., priority 2018, published 2022).
≈ marks a conversion by molar mass, not a printed value. Where two headings read alike, the source gives them in different places.

Tests used:
K. pneumoniae = test: MIC by broth microdilution (CLSI), K. pneumoniae; type: cell-based; conditions: Klebsiella pneumoniae, read-out: K. pneumoniae MIC
Procedure: (§1) Minimal inhibitory concentrations (MIC) were determined by the broth microdilution method in accordance with the Clinical and Laboratory Standards Institute (CLSI) guidelines. In brief, organism suspensions were adjusted to a 0.5 McFarland standard to yield a final inoculum between 3×10^5 and 7×10^5 colony-forming units (CFU)/mL. Drug dilutions and inocula were made in sterile, cation adjusted Mueller-Hinton Broth (Beckton Dickinson). An inoculum volume of 100 μL was added to wells containing 100 μL of broth with 2-fold serial dilutions of drug. All inoculated microdilution trays were incubated in ambient air at 35° C. for 18-24 h. Following incubation, the lowest concentration of the drug that prevented visible growth (OD600 nm<0.05) was recorded as the MIC. Performance of the assay was monitored by the use of laboratory quality-control strains and levofloxacin, a compound with a defined MIC spectrum, in accordance with CLSI guidelines.

E. coli = test: MIC by broth microdilution (CLSI), E. coli; type: cell-based; conditions: Escherichia coli, read-out: E. coli MIC
Procedure: as §1

[1] = broth microdilution, cation adjusted Mueller-Hinton Broth, 35° C., 18-24 h

MIC (K. pneumoniae; [1]) [µg/mL]	MIC (E. coli; [1]) [µg/mL]	Compound	MIC (K. pneumoniae) [µg/mL]	MIC (E. coli) [µg/mL]
8 to 32 (≈ 18 to 72 µM)	8 to 32 (≈ 18 to 72 µM)	O=c1cccc(CC(CO)c2ccc(C#Cc3ccc(CN4CCOCC4)cc3)cc2)n1O (stereo not shown) [Compound 138, 1-hydroxy-6-(3-hydroxy-2-(4-((4-(morpholinomethyl)phenyl)ethynyl)phenyl)propyl)pyridin-2(1H)-one]		
> 32	1 to 8 (≈ 2.34 to 18.8 µM)	O=c1[nH]cnc(C2CC2c2ccc(C#Cc3ccc(CN[C@@H]4CCNC4)cc3)cc2)c1O (stereo partly drawn) [Compound 103, 5-hydroxy-6-(2-(4-((4-((((R)-pyrrolidin-3-yl)amino)methyl)phenyl)ethynyl)phenyl)cyclopropyl) pyrimidin-4(3H)-one]		
> 32	8 to 32 (≈ 16.4 to 65.8 µM)	CO/N=C(\C)C(Cc1ccc(C#Cc2ccc(CN3CCOCC3)cc2)cc1)c1ncnc(O)c1O (stereo not shown) [Compound 116, (E)-3-(5,6-dihydroxypyrimidin-4-yl)-4-(4-((4-(morpholinomethyl)phenyl)ethynyl)phenyl)butan-2-one O-methyl oxime]		
1 to 8 (≈ 2.2 to 17.6 µM)	1 to 8 (≈ 2.2 to 17.6 µM)	N#CCC(Cc1ccc(C#Cc2ccc(CN3CCOCC3)cc2)cc1)c1nc[nH]c(=O)c1O (stereo not shown) [Compound 106, 3-(5-hydroxy-6-oxo-1,6-dihydropyrimidin-4-yl)-4-(4-((4-(morpholinomethyl)phenyl)ethynyl)phenyl)butanenitrile]		
> 32	8 to 32 (≈ 14.7 to 58.6 µM)	O=C(OC1CCSC1)C(Cc1ccc(C#Cc2ccc(CN3CCOCC3)cc2)cc1)c1nc[nH]c(=O)c1O (stereo not shown) [Compound 115, tetrahydrothiophen-3-yl 2-(5-hydroxy-6-oxo-1,6-dihydropyrimidin-4-yl)-3-(4-((4-(morpholinomethyl)phenyl)ethynyl)phenyl)propanoate]		
> 32	8 to 32 (≈ 19.3 to 77 µM)	O=c1ccoc(CCc2ccc(C#Cc3ccc(CN4CCOCC4)cc3)cc2)c1O [Compound 117, 3-hydroxy-2-(4-((4-(morpholinomethyl)phenyl)ethynyl)phenethyl)-4H-pyran-4-one]		
> 32	8 to 32 (≈ 18.1 to 72.5 µM)	O=c1[nH]cnc(C2(Cc3ccc(C#Cc4ccc(CN5CCOCC5)cc4)cc3)CC2)c1O [Compound 135, 5-hydroxy-6-(1-(4-((4-(morpholinomethyl)phenyl)ethynyl)benzyl)cyclopropyl) pyrimidin-4(3H)-one]		
8 to 32 (≈ 19.2 to 76.8 µM)	1 to 8 (≈ 2.4 to 19.2 µM)	O=c1ccoc(CNc2ccc(C#Cc3ccc(CN4CCOCC4)cc3)cc2)c1O [Compound 109, 3-hydroxy-2-(((4-((4-(morpholinomethyl)phenyl)ethynyl)phenyl)amino)methyl)-4H-pyran-4-one]		
> 32	8 to 32 (≈ 16.9 to 67.7 µM)	C/C(=N\O)C(Cc1ccc(C#Cc2ccc(CN3CCOCC3)cc2)cc1)c1ncnc(O)c1O (stereo not shown) [Compound 111, (E)-3-(5,6-dihydroxypyrimidin-4-yl)-4-(4-((4-(morpholinomethyl)phenyl)ethynyl)phenyl)butan-2-one oxime]		
> 32	8 to 32 (≈ 18.3 to 73.3 µM)	O=C(Cc1nc[nH]c(=O)c1O)N1CCC(C#Cc2ccc(CN3CCOCC3)cc2)CC1 [Compound 77, 5-hydroxy-6-(2-(4-((4-(morpholinomethyl)phenyl)ethynyl)piperidin-1-yl)-2-oxoethyl)pyrimidin-4(3H)-one]		
8 to 32 (≈ 17.6 to 70.4 µM)	1 to 8 (≈ 2.2 to 17.6 µM)	N#CCC(Cc1ccc(C#Cc2ccc(CN[C@H]3CCOC3)cc2)cc1)c1nc[nH]c(=O)c1O (stereo partly drawn) [Compound 107, 3-(5-hydroxy-6-oxo-1,6-dihydropyrimidin-4-yl)-4-(4-((4-((((S)-tetrahydrofuran-3-yl)amino)methyl)phenyl)ethynyl)phenyl)butanenitrile]		
> 32	8 to 32 (≈ 16.8 to 67 µM)	O=C(NCCc1nc[nH]c(=O)c1O)n1cc(C#Cc2ccc(CN3CCOCC3)cc2)cc1CO [Compound 79, N-(2-(5-hydroxy-6-oxo-1,6-dihydropyrimidin-4-yl)ethyl)-2-(hydroxymethyl)-4-((4-(morpholinomethyl)phenyl)ethynyl)-1H-pyrrole-1-carboxamide]		

More lines, now with the values behind:

Compound	MIC (K. pneumoniae; [1]) [µg/mL]	MIC (E. coli; [1]) [µg/mL]	MIC (K. pneumoniae) [µg/mL]	MIC (E. coli) [µg/mL]
Cc1ncc(C#Cc2ccc(CC(C(=O)NCC(F)F)c3nc[nH]c(=O)c3O)cc2)cn1 (stereo not shown) [Compound 25, N-(2,2-difluoroethyl)-2-(5-hydroxy-6-oxo-1,6-dihydropyrimidin-4-yl)-3-(4-((2-methylpyrimidin-5-yl)ethynyl)phenyl)propanamide]	> 32	> 32		
CC(=O)NCC(Cc1ccc(C#Cc2ccc(CN3CCOCC3)cc2)cc1)c1nncc(O)c1O (stereo not shown) [Compound 11, N-(2-(4,5-dihydroxypyridazin-3-yl)-3-(4-((4-(morpholinomethyl)phenyl)ethynyl)phenyl)propyl) acetamide]	8 to 32 (≈ 16.4 to 65.8 µM)	8 to 32 (≈ 16.4 to 65.8 µM)		
O=C(NCC(F)F)C(Cc1ccc(-c2ccc(-n3cccn3)cc2)cc1)c1nc[nH]c(=O)c1O (stereo not shown) [Compound 38, 3-(4′-(1H-pyrazol-1-yl)-[1,1-biphenyl]-4-yl)-N-(2,2-difluoroethyl)-2-(5-hydroxy-6-oxo-1,6-dihydropyrimidin-4-yl)propanamide]	> 32	> 32		
O=c1[nH]cnc(C(CNCCF)Cc2ccc(C#CC#CC3CC3)cc2)c1O (stereo not shown) [Compound 68, 6-(1-(4-(cyclopropylbuta-1,3-diyn-1-yl)phenyl)-3-((2-fluoroethyl)amino)propan-2-yl)-5-hydroxypyrimidin-4(3H)-one]	> 32	> 32		
O=c1[nH]cnc(CCc2ccc(C#Cc3ccc(CN4CCOCC4)cn3)cc2)c1O [Compound 16, 5-hydroxy-6-(4-((5-(morpholinomethyl)pyridin-2-yl)ethynyl)phenethyl) pyrimidin-4(3H)-one]	1 to 8 (≈ 2.4 to 19.2 µM)	< 1		
O=c1[nH]cnc(CCn2ccc(C#Cc3ccc(CN4CCOCC4)cc3)cc2=O)c1O [Compound 23, 5-hydroxy-6-(2-(4-((4-(morpholinomethyl)phenyl)ethynyl)-2-oxopyridin-1(2H)-yl)ethyl)pyrimidin-4(3H)-one]	8 to 32 (≈ 18.5 to 74 µM)	< 1		
C=C(Cc1ccc(C#CC#Cc2ccc(C(=O)N3CCN(C)CC3)cc2)cc1)c1nc[nH]c(=O)c1O [Compound 33, 5-hydroxy-6-(3-(4-((4-(4-methylpiperazine-1-carbonyl)phenyl)buta-1,3-diyn-1-yl)phenyl)prop-1-en-2-yl)pyrimidin-4(3H)-one]	1 to 8 (≈ 2.09 to 16.7 µM)	1 to 8 (≈ 2.09 to 16.7 µM)		
O=c1[nH]cnc(CCc2ccc(C#Cc3ccc(CNC4CCOC4)cc3)cn2)c1O (stereo not shown) [Compound 20, 5-hydroxy-6-(2-(5-((4-(((tetrahydrofuran-3-yl)amino)methyl)phenyl)ethynyl)pyridin-2-yl)ethyl)pyrimidin-4(3H)-one]	8 to 32 (≈ 19.2 to 76.8 µM)	< 1		
CC(C)C#CC#Cc1ccc(CC(CNCCF)c2nc[nH]c(=O)c2O)cc1 (stereo not shown) [Compound 66, 6-(1-((2-fluoroethyl)amino)-3-(4-(5-methylhexa-1,3-diyn-1-yl)phenyl)propan-2-yl)-5-hydroxypyrimidin-4(3H)-one]	8 to 32 (≈ 21 to 83.9 µM)	8 to 32 (≈ 21 to 83.9 µM)		
N#Cc1ccc(-c2ccc(CC(C(=O)NCC(F)F)c3nc[nH]c(=O)c3O)cc2)cc1 (stereo not shown) [Compound 39, 3-(4′-cyano-[1,1′-biphenyl]-4-yl)-N-(2,2-difluoroethyl)-2-(5-hydroxy-6-oxo-1,6-dihydropyrimidin-4-yl)propanamide]	> 32	> 32		
COC(=O)NCC(Cc1ccc(C#Cc2ccc(CN3CCOCC3)cc2)cn1)c1nc[nH]c(=O)c1O (stereo not shown) [Compound 29, methyl (2-(5-hydroxy-6-oxo-1,6-dihydropyrimidin-4-yl)-3-(5-((4-(morpholinomethyl)phenyl)ethynyl)pyridin-2-yl)propyl)carbamate]	> 32	> 32		
C=CCNCC(Cc1ccc(C#CC#Cc2ccc(C(=O)NCCO)cc2)cc1)c1nc[nH]c(=O)c1O (stereo not shown) [Compound 34, 4-((4-(3-(allylamino)-2-(5-hydroxy-6-oxo-1,6-dihydropyrimidin-4-yl)propyl)phenyl)buta-1,3-diyn-1-yl)-N-(2-hydroxyethyl)benzamide]	8 to 32 (≈ 16.1 to 64.4 µM)	1 to 8 (≈ 2.01 to 16.1 µM)		
Cn1cnc(C(CNC(=O)CF)Cc2ccc(C#Cc3ccc(CN4CCOCC4)cc3)cc2)c(O)c1=O (stereo not shown) [Compound 132, 2-fluoro-N-(2-(5-hydroxy-1-methyl-6-oxo-1,6-dihydropyrimidin-4-yl)-3-(4-((4-(morpholinomethyl)phenyl)ethynyl)phenyl)propyl)acetamide]			> 32	> 32
C=CCNCC(Cc1ccc(C#CC#Cc2ccccc2N)cc1)c1nc[nH]c(=O)c1O (stereo not shown) [Compound 36, 6-(1-(allylamino)-3-(4-((2-aminophenyl)buta-1,3-diyn-1-yl)phenyl)propan-2-yl)-5-hydroxypyrimidin-4(3H)-one]	> 32	8 to 32 (≈ 18.8 to 75.4 µM)		
C=CCNCC(Cc1ccc(C#CC#Cc2cnc(C)nc2)cc1)c1nc[nH]c(=O)c1O (stereo not shown) [Compound 37, 6-(1-(allylamino)-3-(4-((2-methylpyrimidin-5-yl)buta-1,3-diyn-1-yl)phenyl)propan-2-yl)-5-hydroxypyrimidin-4(3H)-one]	> 32	8 to 32 (≈ 18.8 to 75.2 µM)		
O=c1[nH]cnc(CCc2ccc(C#Cc3ccncc3)cc2)c1O [Compound 18, 5-hydroxy-6-(4-(pyridin-4-ylethynyl)phenethyl) pyrimidin-4(3H)-one]	> 32	< 1		
C=CCNCC(Cc1ccc(C#CC#Cc2cnn(C)c2)cc1)c1nc[nH]c(=O)c1O (stereo not shown) [Compound 62, 6-(1-(allylamino)-3-(4-((1-methyl-1H-pyrazol-4-yl)buta-1,3-diyn-1-yl)phenyl)propan-2-yl)-5-hydroxypyrimidin-4(3H)-one]	8 to 32 (≈ 19.3 to 77.4 µM)	1 to 8 (≈ 2.42 to 19.3 µM)		
